Test results reported in patent publication US11155557B2, “Pyrazolopyrimidine compounds and methods of use thereof” (Genentech, Inc., priority 2016, dated 2021).

What was measured:
[1] = biological target: isolated recombinant JAK1 kinase domain (Homo sapiens (Human), UniProt P23458); assay: JAK1 enzyme assay (Caliper LabChip, Ki); format: biochemical
Method: The activity of the isolated recombinant JAK1 and JAK2 kinase domain was measured by monitoring phosphorylation of a peptide derived from JAK3 ([…] fluorescently labeled on the N-terminus with 5-carboxyfluorescein) using the Caliper LabChip R technology (Caliper Life Sciences, Hopkinton, Mass.).

[2] = system: JAK1-dependent STAT6 phosphorylation in BEAS-2B human bronchial epithelial cells; assay: JAK1 pathway assay: IL-13 stimulated STAT6 phosphorylation in BEAS-2B cells; format: cell-based; details: Homo sapiens, BEAS-2B, BEAS-2B cells, IL-13 stimulation; read-out: IL-13 p-STAT6 BEAS-2B IC50
In short: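 BEAS-2B bronchial epithelial cells plated one day before, run in complete growth medium. Phospho-STAT6 in lysates measured by MesoScale Discovery; EC50 reported.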

[3] = biological target: isolated recombinant JAK2 kinase domain (Homo sapiens (Human), UniProt O60674); assay: JAK2 enzyme assay (Caliper LabChip, Ki); details: read-out: JAK2 Ki
isolated recombinant JAK2 kinase domain, sequence (O60674 849-1124): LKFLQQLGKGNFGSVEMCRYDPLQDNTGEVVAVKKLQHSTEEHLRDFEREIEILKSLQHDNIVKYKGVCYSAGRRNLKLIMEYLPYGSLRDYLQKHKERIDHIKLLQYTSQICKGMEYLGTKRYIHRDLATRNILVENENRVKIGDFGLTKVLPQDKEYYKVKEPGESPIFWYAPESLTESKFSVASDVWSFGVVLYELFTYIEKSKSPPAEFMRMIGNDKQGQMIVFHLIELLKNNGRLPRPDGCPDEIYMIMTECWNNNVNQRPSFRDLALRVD

isolated recombinant JAK1 kinase domain, sequence (P23458 875-1153): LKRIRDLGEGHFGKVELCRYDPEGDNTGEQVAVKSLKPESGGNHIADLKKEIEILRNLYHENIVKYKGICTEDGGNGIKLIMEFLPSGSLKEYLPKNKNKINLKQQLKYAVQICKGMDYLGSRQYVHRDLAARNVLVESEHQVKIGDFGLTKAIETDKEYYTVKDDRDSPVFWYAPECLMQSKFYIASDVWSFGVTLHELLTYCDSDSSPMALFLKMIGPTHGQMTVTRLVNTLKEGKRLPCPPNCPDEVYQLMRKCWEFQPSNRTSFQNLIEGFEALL

Ki [1]	Ki [3]	Compound	IC50 [2]
0.12 nM	0.08 nM	Cn1cc(Cn2cc(NC(=O)c3cnn4cccnc34)c(-c3cc4c(cc3OC(F)F)NCCS4)n2)nn1 [Example 131, N-[3-[6-(difluoromethoxy)-3,4-dihydro-2H-1,4-benzothiazin-7-yl]-1-[(1-methyltriazol-4-yl)methyl]pyrazol-4-yl]pyrazolo[1,5-a]pyrimidine-3-carboxamide]	30 nM
0.26 nM	0.21 nM	Cn1nncc1Cn1cc(NC(=O)c2cnn3cccnc23)c(-c2cc3c(cc2OC(F)F)NCCO3)n1 [Example 133, N-[3-[6-(difluoromethoxy)-3,4-dihydro-2H-1,4-benzoxazin-7-yl]-1-[(3-methyltriazol-4-yl)methyl]pyrazol-4-yl]pyrazolo[1,5-a]pyrimidine-3-carboxamide]	17 nM
0.19 nM	0.14 nM	Cn1nnnc1Cn1cc(NC(=O)c2cnn3cccnc23)c(-c2cc3c(cc2OC(F)F)NCCO3)n1 [Example 135, N-[3-[6-(difluoromethoxy)-3,4-dihydro-2H-1,4-benzoxazin-7-yl]-1-[(1-methyltetrazol-5-yl)methyl]pyrazol-4-yl]pyrazolo[1,5-a]pyrimidine-3-carboxamide]	26 nM
0.23 nM	0.17 nM	Cn1nnc(Cn2cc(NC(=O)c3cnn4cccnc34)c(-c3cc4c(cc3OC(F)F)NCCO4)n2)n1 [Example 136, N-[3-[6-(difluoromethoxy)-3,4-dihydro-2H-1,4-benzoxazin-7-yl]-1-[(2-methyltetrazol-5-yl)methyl]pyrazol-4-yl]pyrazolo[1,5-a]pyrimidine-3-carboxamide]	21 nM
0.26 nM	0.32 nM	O=C(Nc1cn(CC(=O)N2CC(F)(F)C2)nc1-c1cc2c(cc1OC(F)F)NCCO2)c1cnn2cccnc12 [Example 138, N-[1-[2-(3,3-difluoroazetidin-1-yl)-2-oxo-ethyl]-3-[6-(difluoromethoxy)-3,4-dihydro-2H-1,4-benzoxazin-7-yl]pyrazol-4-yl]pyrazolo[1,5-a]pyrimidine-3-carboxamide]	36 nM

Second part, the compound before the results:

Compound	Ki [1]	Ki [3]	IC50 [2]
O=C(Nc1cn(CC(=O)N2CCC(F)(F)C2)nc1-c1cc2c(cc1OC(F)F)NCCO2)c1cnn2cccnc12 [Example 132, N-[3-[6-(difluoromethoxy)-3,4-dihydro-2H-1,4-benzoxazin-7-yl]-1-[2-(3,3-difluoropyrrolidin-1-yl)-2-oxo-ethyl]pyrazol-4-yl]pyrazolo[1,5-a]pyrimidine-3-carboxamide]	0.36 nM	0.4 nM	31 nM
O=C(Nc1cn(CC2(O)CCOCC2)nc1-c1cc2c(cc1OC(F)F)NCCO2)c1cnn2cccnc12 [Example 134, N-[3-[6-(difluoromethoxy)-3,4-dihydro-2H-1,4-benzoxazin-7-yl]-1-[(4-hydroxytetrahydropyran-4-yl)methyl]pyrazol-4-yl]pyrazolo[1,5-a]pyrimidine-3-carboxamide]	0.4 nM	0.47 nM	23 nM
Cn1cc(NC(=O)c2cnn3cccnc23)c(-c2cc3c(cc2OC(F)F)NC(=O)CO3)n1 [Example 137, N-[3-[6-(difluoromethoxy)-3-oxo-4H-1,4-benzoxazin-7-yl]-1-methyl-pyrazol-4-yl]pyrazolo[1,5-a]pyrimidine-3-carboxamide]	0.09 nM	0.08 nM	8 nM
O=C(Nc1cn(C2COC2)nc1-c1cc2sncc2cc1OC(F)F)c1cnn2cccnc12 [Example 139, N-[3-[5-(difluoromethoxy)-1,2-benzothiazol-6-yl]-1-(oxetan-3-yl)pyrazol-4-yl]pyrazolo[1,5-a]pyrimidine-3-carboxamide]	0.33 nM	0.21 nM	10 nM
N#CCn1cc(NC(=O)c2cnn3cccnc23)c(-c2cc3c(cc2OC(F)F)NCCS3)n1 [Example 140, N-[1-(cyanomethyl)-3-[6-(difluoromethoxy)-3,4-dihydro-2H-1,4-benzothiazin-7-yl]pyrazol-4-yl]pyrazolo[1,5-a]pyrimidine-3-carboxamide]	0.09 nM	0.06 nM	4 nM
